In ChEMBL document CHEMBL1201862, “PubChem BioAssay data set” (2004):
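Tested at 5 concentrations; 48 h exposure; 96-well plates; endpoints linearly interpolated, else capped at highest concentration. GI50 is the concentration that inhibits growth by half.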 Activity calls are given as the source filed them. Cut-off read from the data, not from the text of the source: active = GI50 up to about 1.1 µM and inactive = higher.

Experiments:
Test in all cases: NCI anticancer screen, dose series, 48 h
[1] = system: BT-549
[2] = system: HOP-62
[3] = system: CAKI-1
[4] = system: HCT-15
[5] = system: OVCAR-4
[6] = system: SW-620
[7] = system: NCI-H460
[8] = system: SK-OV-3
[9] = system: IGROV-1
[10] = system: RXF 393
[11] = system: SR
[12] = system: MDA-N
[13] = system: HCC 2998
[14] = system: OVCAR-8
[15] = system: SK-MEL-5
[16] = system: SK-MEL-2
[17] = system: COLO 205
[18] = system: MOLT-4
[19] = system: T47D
[20] = system: 786-0
[21] = system: HOP-92
[22] = system: MDA-MB-231
[23] = system: SK-MEL-28
[24] = system: OVCAR-3
[25] = system: M14
[26] = system: TK-10
[27] = system: UACC-257
[28] = system: UO-31
[29] = system: CCRF-CEM
[30] = system: Malme-3M
[31] = system: PC-3
[32] = system: SNB-75
[33] = system: A549
[34] = system: U-251
[35] = system: OVCAR-5
[36] = system: MDA-MB-435
[37] = system: KM12
[38] = system: RPMI-8226
[39] = system: EKVX
[40] = system: NCI-H522
[41] = system: SF-295
[42] = system: UACC-62
[43] = system: A498
[44] = system: DU-145
[45] = system: LOX IMVI
[46] = system: NCI/ADR-RES
[47] = system: MCF7
[48] = system: SNB-19
[49] = system: HT-29
[50] = system: NCI-H226
[51] = system: ACHN
[52] = system: HCT-116
[53] = system: SF-268
[54] = system: SN12C
[55] = system: SF-539
[56] = system: K562
[57] = system: NCI-H23
[58] = system: HL-60
[59] = system: Hs-578T

## COc1cccc(C2SC(=N)Nc3c2c(C)nn3C(=O)c2ccccc2O)c1 (stereo not drawn)
[1]
  GI50: > 10 µM (inactive)
[2]
  GI50: > 7.1 µM (inactive)
[3]
  GI50: > 10 µM (inactive)
[4]
  GI50: > 5.7 µM
[5]
  GI50: > 2.88 µM (inactive)
[6]
  GI50: > 7.14 µM (inactive)
[7]
  GI50: 3.22 µM (inactive)
[8]
  GI50: > 7.5 µM (inactive)
[9]
  GI50: > 2.11 µM (inactive)
[10]
  GI50: 2.14 µM (inactive)
[11]
  GI50: > 3.21 µM (inactive)
[12]
  GI50: > 2.28 µM (inactive)
[13]
  GI50: > 10 µM (inactive)
[14]
  GI50: > 2.76 µM (inactive)
[15]
  GI50: > 6.53 µM (inactive)
[16]
  GI50: > 7.23 µM (inactive)
[17]
  GI50: > 6.4 µM (inactive)
[18]
  GI50: > 2.44 µM (inactive)
[19]
  GI50: > 7.03 µM (inactive)
[20]
  GI50: > 3.79 µM (inactive)
[21]
  GI50: > 2.08 µM (inactive)
[22]
  GI50: > 4.62 µM (inactive)
[23]
  GI50: > 10 µM (inactive)
[24]
  GI50: > 3.65 µM (inactive)
[25]
  GI50: > 5.47 µM (inactive)
[26]
  GI50: > 2.78 µM (inactive)
[27]
  GI50: 2.68 µM (inactive)
[28]
  GI50: > 10 µM (inactive)
[29]
  GI50: > 3.21 µM (inactive)
[30]
  GI50: 0.581 µM (active)
[31]
  GI50: > 10 µM (inactive)
[32]
  GI50: 0.925 µM (active)
[33]
  GI50: 1.75 µM (inactive)
[34]
  GI50: > 2.65 µM (inactive)
[35]
  GI50: > 6.73 µM (inactive)
[36]
  GI50: 1.76 µM (inactive)
[37]
  GI50: > 2.79 µM (inactive)
[38]
  GI50: > 10 µM (inactive)
[39]
  GI50: > 9.14 µM (inactive)
[40]
  GI50: > 5.41 µM (inactive)
[41]
  GI50: 3.2 µM (inactive)
[42]
  GI50: 1.76 µM (inactive)
[43]
  GI50: 7.78 µM (inactive)
[44]
  GI50: > 2.44 µM (inactive)
[45]
  GI50: > 4.26 µM (inactive)
[46]
  GI50: > 3.78 µM (inactive)
[47]
  GI50: > 3.11 µM (inactive)
[48]
  GI50: > 10 µM (inactive)
[49]
  GI50: > 6.17 µM (inactive)
[50]
  GI50: > 2.56 µM (inactive)
[51]
  GI50: 1.77 µM (inactive)
[52]
  GI50: > 2.14 µM (inactive)
[53]
  GI50: > 4.32 µM (inactive)
[54]
  GI50: > 3.35 µM (inactive)

## CC(=O)C1(Cc2cccc3ccccc23)S(=O)(=O)OCCOS1(=O)=O
[1]
  GI50: 16.9 µM (inactive)
[2]
  GI50: 20.9 µM (inactive)
[3]
  GI50: 15.9 µM (inactive)
[55]
  GI50: 17.9 µM (inactive)
[56]
  GI50: 28.4 µM (inactive)
[4]
  GI50: 19.2 µM
[5]
  GI50: 21.7 µM (inactive)
[6]
  GI50: 18.3 µM (inactive)
[7]
  GI50: 17.3 µM (inactive)
[8]
  GI50: 2.72 µM (inactive)
[9]
  GI50: 4.69 µM (inactive)
[57]
  GI50: 22.9 µM (inactive)
[10]
  GI50: 12.7 µM (inactive)
[11]
  GI50: 18.3 µM (inactive)
[12]
  GI50: 11.8 µM (inactive)
[13]
  GI50: 17.3 µM (inactive)
[14]
  GI50: 19.5 µM (inactive)
[58]
  GI50: 15.2 µM (inactive)
[15]
  GI50: 12.2 µM (inactive)
[17]
  GI50: 17 µM (inactive)
[18]
  GI50: 29.1 µM (inactive)
[19]
  GI50: 18.5 µM (inactive)
[20]
  GI50: 23.5 µM (inactive)
[21]
  GI50: 15.5 µM (inactive)
[22]
  GI50: 15.8 µM (inactive)
[23]
  GI50: 19.3 µM (inactive)
[24]
  GI50: 19.7 µM (inactive)
[25]
  GI50: 23.4 µM (inactive)
[26]
  GI50: 17.3 µM (inactive)
[27]
  GI50: 4.11 µM (inactive)
[28]
  GI50: 15.8 µM (inactive)
[29]
  GI50: 38.7 µM (inactive)
[30]
  GI50: 17.3 µM (inactive)
[31]
  GI50: 14.2 µM (inactive)
[32]
  GI50: 35.4 µM (inactive)
[34]
  GI50: 16.7 µM (inactive)
[35]
  GI50: 17.6 µM (inactive)
[36]
  GI50: 14.7 µM (inactive)
[37]
  GI50: 15.4 µM (inactive)
[38]
  GI50: 19.5 µM (inactive)
[39]
  GI50: 18.5 µM (inactive)
[40]
  GI50: 21.6 µM (inactive)
[41]
  GI50: 0.843 µM (active)
[42]
  GI50: 14.6 µM (inactive)
[43]
  GI50: 19 µM (inactive)
[44]
  GI50: 18.4 µM (inactive)
[45]
  GI50: 12.1 µM (inactive)
[46]
  GI50: 21.8 µM (inactive)
[47]
  GI50: 20.8 µM (inactive)
[48]
  GI50: 18.4 µM (inactive)
[49]
  GI50: 17.5 µM (inactive)
[50]
  GI50: 16.8 µM (inactive)
[51]
  GI50: 18.7 µM (inactive)
[52]
  GI50: 19.6 µM (inactive)
[53]
  GI50: 19.9 µM (inactive)
[54]
  GI50: 11.9 µM (inactive)

## CC(=O)OC[C@@]12Cc3ccc(C)c(O)c3[C@]1(C)[C@@H](OC(C)=O)[C@]1(O)[C@H]([C@@H](OC(=O)c3ccccc3)[C@@H](C)[C@H]1OC(C)=O)[C@H]2OC(C)=O
[1]
  GI50: > 50 µM (inactive)
[2]
  GI50: > 50 µM (inactive)
[3]
  GI50: > 50 µM (inactive)
[55]
  GI50: > 50 µM (inactive)
[56]
  GI50: > 50 µM (inactive)
[4]
  GI50: > 50 µM
[5]
  GI50: > 50 µM (inactive)
[6]
  GI50: > 50 µM (inactive)
[7]
  GI50: > 50 µM (inactive)
[8]
  GI50: > 50 µM (inactive)
[9]
  GI50: > 50 µM (inactive)
[57]
  GI50: > 50 µM (inactive)
[10]
  GI50: > 50 µM (inactive)
[11]
  GI50: > 50 µM (inactive)
[13]
  GI50: 22 µM (inactive)
[14]
  GI50: > 50 µM (inactive)
[58]
  GI50: 44.9 µM (inactive)
[15]
  GI50: > 50 µM (inactive)
[16]
  GI50: > 50 µM (inactive)
[17]
  GI50: > 50 µM (inactive)
[18]
  GI50: > 50 µM (inactive)
[19]
  GI50: > 50 µM (inactive)
[20]
  GI50: > 50 µM (inactive)
[21]
  GI50: > 50 µM (inactive)
[22]
  GI50: > 50 µM (inactive)
[24]
  GI50: > 50 µM (inactive)
[25]
  GI50: > 50 µM (inactive)
[26]
  GI50: > 50 µM (inactive)
[27]
  GI50: > 50 µM (inactive)
[28]
  GI50: > 50 µM (inactive)
[29]
  GI50: > 50 µM (inactive)
[31]
  GI50: > 50 µM (inactive)
[32]
  GI50: 16.4 µM (inactive)
[34]
  GI50: > 50 µM (inactive)
[35]
  GI50: > 50 µM (inactive)
[36]
  GI50: > 50 µM (inactive)
[37]
  GI50: > 50 µM (inactive)
[39]
  GI50: > 50 µM (inactive)
[40]
  GI50: > 50 µM (inactive)
[41]
  GI50: > 50 µM (inactive)
[42]
  GI50: > 50 µM (inactive)
[43]
  GI50: > 50 µM (inactive)
[44]
  GI50: > 50 µM (inactive)
[45]
  GI50: > 50 µM (inactive)
[46]
  GI50: > 50 µM (inactive)
[47]
  GI50: > 50 µM (inactive)
[48]
  GI50: > 50 µM (inactive)
[50]
  GI50: > 50 µM (inactive)
[51]
  GI50: > 50 µM (inactive)
[52]
  GI50: > 50 µM (inactive)
[53]
  GI50: > 50 µM (inactive)
[59]
  GI50: > 50 µM (inactive)
[54]
  GI50: > 50 µM (inactive)
